From PubChem BioAssay AID602322 (The Scripps Research Institute Molecular Screening Center, 2012)
pIC50: −log10 of the molar value. Activity calls are given as the source filed them. The rule behind the calls is not given here.

Assays:
[1] = biological target: Monoacylglycerol lipase ABHD6 (Mus musculus) (UniProt Q8R2Y0); assay: ABHD6 antitarget inhibition potency, dose response, selectivity assay for DAGLb inhibitor project, biochemical, gel-based competitive ABPP, fluorescent probe, mouse (AID 602322); settings: proteome
Monoacylglycerol lipase ABHD6 (Mus musculus), sequence (Q8R2Y0 whole entry, looked up): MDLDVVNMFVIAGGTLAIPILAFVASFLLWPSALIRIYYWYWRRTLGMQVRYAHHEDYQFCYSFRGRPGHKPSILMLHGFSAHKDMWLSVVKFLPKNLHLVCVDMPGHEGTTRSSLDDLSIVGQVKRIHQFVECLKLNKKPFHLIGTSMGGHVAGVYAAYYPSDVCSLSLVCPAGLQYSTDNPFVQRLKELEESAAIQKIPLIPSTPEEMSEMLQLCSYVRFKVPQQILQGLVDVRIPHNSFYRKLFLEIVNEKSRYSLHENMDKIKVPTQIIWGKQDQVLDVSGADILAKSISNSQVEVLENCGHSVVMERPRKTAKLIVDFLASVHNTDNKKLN

[2] = biological target: Diacylglycerol lipase-beta (Mus musculus) (UniProt Q91WC9); assay: as above; settings: proteome, DAGLb
Diacylglycerol lipase-beta (Mus musculus), sequence (Q91WC9 whole entry, looked up): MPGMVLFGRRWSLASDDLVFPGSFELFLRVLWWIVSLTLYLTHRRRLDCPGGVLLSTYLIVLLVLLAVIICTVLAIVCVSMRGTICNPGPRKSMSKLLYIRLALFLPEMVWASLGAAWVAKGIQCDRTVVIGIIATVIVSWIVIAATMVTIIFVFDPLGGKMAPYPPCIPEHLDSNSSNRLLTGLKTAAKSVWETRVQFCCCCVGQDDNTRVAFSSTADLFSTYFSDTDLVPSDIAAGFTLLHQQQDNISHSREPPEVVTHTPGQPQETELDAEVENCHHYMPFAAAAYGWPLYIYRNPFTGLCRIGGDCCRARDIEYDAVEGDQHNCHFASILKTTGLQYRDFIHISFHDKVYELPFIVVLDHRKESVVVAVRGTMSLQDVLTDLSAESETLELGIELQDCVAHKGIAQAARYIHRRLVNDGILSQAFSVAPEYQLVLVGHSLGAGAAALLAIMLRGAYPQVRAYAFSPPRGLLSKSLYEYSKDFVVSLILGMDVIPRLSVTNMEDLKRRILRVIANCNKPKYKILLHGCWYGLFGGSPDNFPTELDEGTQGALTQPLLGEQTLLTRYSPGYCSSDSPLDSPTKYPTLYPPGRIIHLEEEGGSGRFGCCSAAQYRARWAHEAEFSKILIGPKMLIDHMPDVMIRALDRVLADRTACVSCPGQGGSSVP

pIC50 [1] | IC50 [2] | SMILES
8.00 | > 100 nM (inactive) | O=C(N1CCCCC1c1ccccc1)n1cc(-c2ccc(-c3ccccc3)cc2)nn1 (stereo unspecified)
 | > 100 nM (inactive) | O=C(O)c1cccc(-c2ccc(-c3cn(C(=O)N4CCCCC4Cc4ccccc4)nn3)cc2)c1 (stereo unspecified)
7.42 | > 3330 nM (inactive) | COc1ccc(-c2ccc(-c3cn(C(=O)N4CCCCC4c4ccccc4)nn3)cc2)cc1 (stereo unspecified)
 | > 100 nM (inactive) | O=C(N1CCCCC1c1ccccc1)n1cc(-c2ccc(-c3cccc(CO)c3)cc2)nn1 (stereo unspecified)
